According to patent US8598223B2, “Crystalline forms of 4, 4′-[4-fluoro-7-({4-[4-(3-fluoro-2-methylphenyl) butoxy] phenyl} ethynyl)-2-methyl-1H-indole-1,3-diyl] dibutanoic acid, 4,4′-[2-methyl-7-({4-[4-(pentafluorophenyl) butoxy] phenyl} ethynyl)-1H-indole-1, 3-diyl] dibutanoic acid, and 4,4′-[4-fluoro-2-methyl-7-({4-[4-(2, 3, 4, …” (Ono Pharmaceutical Co., Ltd., priority 2010, dated 2013):
Like-named read-outs stand apart in the source and are kept apart here.

How the values were obtained:
[1] = tested on: LTD4-induced bronchoconstriction in guinea pigs; test: LTD4-induced bronchoconstriction in guinea pigs (Konzett-Rossler method); type: in vivo, guinea pig; conditions: oral, 1 mg/kg
Procedure: Guinea pigs were anesthetized by injection of pentobarbital sodium (75 mg/kg, i.p.), and a polyethylene cannula was inserted into the trachea which had been incised. For the purpose of administration of LTD4, a catheter was inserted into the jugular vein of the animal. One side of the cannula inserted into the trachea was connected with a volume-controlled respirator to perform artificial respiration at a ventilation volume of 5 mL and at a ventilation rate of 70 times/min. LTD4 was administrated intravenously to induce the bronchoconstriction, and the airway resistance was measured using the Konzett-Rossler method. The bronchoconstriction response was measured for 10 minutes after LTD4-challenge, and the ratio of bronchoconstriction response was determined and represented as a percentage of the maximal increase in insufflation pressure achieved by clamping off the trachea. In this connection, the crystalline forms of the present invention were orally administered 1, 2, 4, 8, 12, 18, 24, 36 and 48 hours prior to challenge by LTD4.

[2] = Thermodynamical stability test by differential scanning calorimetry (DSC); type: physicochemical
Procedure: The thermodynamical stability of each crystalline form of compound I, compound II, and compound III was analyzed by differential scanning calorimetry (DSC). As a result, it was apparent that the crystalline forms of the present invention are ones which have improved thermodynamical stability.

[3] = Photostability test (D65 lamp); type: physicochemical; conditions: not less than 1.2 million lux hours and 200 W·h/m^2, 25° C.±2° C., visual check
Procedure: Each crystalline form of compound I, compound II, and compound III were weighed about 5 mg, and were exposed to light from D65 lamp providing an overall illumination of not less than 1.2 million lux hours and an integrated near ultraviolet energy of not less than 200 W·h/m^2 under 25° C.±2° C.

[4] = administered 2 hours prior to LTD4 challenge
[5] = administered 24 hours prior to LTD4 challenge

## Cc1c(F)cccc1CCCCOc1ccc(/C=C/c2ccc(F)c3c(CCCC(=O)O)c(C)n(CCCC(=O)O)c23)cc1 [Comparative Example 4, 4,4′-{4-fluoro-7-[(E)-2-{4-[4-(3-fluoro-2-methylphenyl)butoxy]phenyl}vinyl]-2-methyl-1H-indole-1,3-diyl}dibutanoic acid]
[1]; [4]
  bronchoconstriction inhibition ratio: 97.5%
[1]; [5]
  bronchoconstriction inhibition ratio: 43.2%

## Cc1c(CCCC(=O)O)c2cccc(/C=C/c3ccc(OCCCCc4c(F)c(F)c(F)c(F)c4F)cc3)c2n1CCCC(=O)O [Comparative Example 5, 4,4′-{2-methyl-7-[(E)-2-{4-[4-(pentafluorophenyl)butoxy]phenyl}vinyl]-1H-indole-1,3-diyl}dibutanoic acid]
[1]; [4]
  bronchoconstriction inhibition ratio: 98.6%
[1]; [5]
  bronchoconstriction inhibition ratio: 74.1%

## Cc1c(CCCC(=O)O)c2c(F)ccc(/C=C/c3ccc(OCCCCc4c(F)cc(F)c(F)c4F)cc3)c2n1CCCC(=O)O [Comparative Example 6, 4,4′-{4-fluoro-2-methyl-7-[(E)-2-{4-[4-(2,3,4,6-tetrafluorophenyl)butoxy]phenyl}vinyl]-1H-indole-1,3-diyl}dibutanoic acid]
[1]; [4]
  bronchoconstriction inhibition ratio: 53.2%
[1]; [5]
  bronchoconstriction inhibition ratio: 16.1%

## Cc1c(F)cccc1CCCCOc1ccc(C#Cc2ccc(F)c3c(CCCC(=O)O)c(C)n(CCCC(=O)O)c23)cc1 [Example 12, 4,4′-[4-fluoro-7-({4-[4-(3-fluoro-2-methylphenyl)butoxy]phenyl}ethynyl)-2-methyl-1H-indole-1,3-diyl]dibutanoic acid]
[2]
  thermodynamical stability of the crystalline form: the most thermodynamically stable crystalline form
[2]; listed as type C crystal of compound I
  fusion enthalpy: 105.6 J/g
[3]
  photostability of the crystalline form: photostable

## Cc1c(CCCC(=O)O)c2cccc(C#Cc3ccc(OCCCCc4c(F)c(F)c(F)c(F)c4F)cc3)c2n1CCCC(=O)O [Example 14, 4,4′-[2-methyl-7-({4-[4-(pentafluorophenyl)butoxy]phenyl}ethynyl)-1H-indole-1,3-diyl]dibutanoic acid]
[1]; [4]
  bronchoconstriction inhibition ratio: 98.5%
[1]; [5]
  bronchoconstriction inhibition ratio: 99.2%
[2]
  thermodynamical stability of the crystalline form: thermodynamically stable
[3]
  photostability of the crystalline form: more photostable than type A crystal

## Cc1c(CCCC(=O)O)c2c(F)ccc(C#Cc3ccc(OCCCCc4c(F)cc(F)c(F)c4F)cc3)c2n1CCCC(=O)O [Example 16, 4,4′-[4-fluoro-2-methyl-7-({4-[4-(2,3,4,6-tetrafluorophenyl)butoxy]phenyl}ethynyl)-1H-indole-1,3-diyl]dibutanoic acid]
[2]
  thermodynamical stability of the crystalline form: thermodynamically stable
[3]
  photostability of the crystalline form: photostable

## Cc1c(F)cccc1CCCCOc1ccc(C#Cc2ccc(F)c3c(CCCC(=O)O)c(C)n(CCCC(=O)O)c23)cc1 [type A crystal of compound I, 4,4′-[4-fluoro-7-({4-[4-(3-fluoro-2-methylphenyl)butoxy]phenyl}ethynyl)-2-methyl-1H-indole-1,3-diyl]dibutanoic acid]
[2]
  fusion enthalpy: 96.3 J/g

## Cc1c(CCCC(=O)O)c2cccc(C#Cc3ccc(OCCCCc4c(F)c(F)c(F)c(F)c4F)cc3)c2n1CCCC(=O)O [type A crystal of compound II, 4,4′-[2-methyl-7-({4-[4-(pentafluorophenyl)butoxy]phenyl}ethynyl)-1H-indole-1,3-diyl]dibutanoic acid]
[3]; type A versus type B crystal
  degree of change in color to yellow after test as compared to before test: bigger

## Cc1c(F)cccc1CCCCOc1ccc(C#Cc2ccc(F)c3c(CCCC(=O)O)c(C)n(CCCC(=O)O)c23)cc1 [type B crystal of compound I, 4,4′-[4-fluoro-7-({4-[4-(3-fluoro-2-methylphenyl)butoxy]phenyl}ethynyl)-2-methyl-1H-indole-1,3-diyl]dibutanoic acid]
[2]
  fusion enthalpy: 57.2 J/g
